SMILES strings stand for the structures. Where a name gives a salt, the structure may show the parent alone.

In the first assay the target is benzodiazepine receptors. Nature of the assay: Affinity for benzodiazepine receptors: inhibition of specific binding of [3H]flunitrazepam (WASTEK et al., modified). Details: species or system rats. To be noted: 50% inhibition of specific binding of [3H]flunitrazepam, rat brain membranes. The method, then:
This study was performed according to the technique of WASTEK et al., (Europ. J. Pharmacol., 1978, 50, 445-447) slightly modified.
Rats are sacrificed by decapitation, and the brain is removed, ground, suspended, centrifuged and resuspended.
Samples of this suspension are incubated in the presence of [^3 H]flunitrazepam, alone or in the presence of increasing concentrations of the test compound.
The radioactivity bound on the membranes is then determined by liquid scintillation.
The concentration of product which 50% inhibits the specific binding of [^3 H]flunitrazepam (IC50) is thereby determined.
One may read the IC50 as the concentration needed to halve the response being measured. Higher therefore signals a need for much substance. For the compound `C#CCN(C)C(=O)CNc1c(C(=O)OCC)cnc2ccc(Cl)cc12` [Derivative 36, 2-(3-Ethoxycarbonyl-6-chloro-4-quinolyl)amino-N-methyl-N-(2-propynyl)acetamide], the IC50 came out at 99 nM. `CCCN(CCC)C(=O)CNc1c(C(=O)OCC)cnc2ccc(OCC)cc12` [Derivative 16, 2-(3-Ethoxycarbonyl-6-ethoxy-4-quinolyl)amino-N,N-dipropylacetamide]: the IC50 turned out to be 38 nM. Against the preceding compound, the IC50 is about 2.6-fold lower.

Turning to `CCCCOC(=O)c1cnc2ccc(Cl)cc2c1NCC(=O)N(CC)CC` [Derivative 49, 2-(3-Butoxycarbonyl-6-chloro-4-quinolyl)amino-N,N-diethylacetamide], the IC50 worked out at 61 nM. The compound `CCCN(CCC)C(=O)CNc1c(C(=O)OCC)cnc2ccc([N+](=O)[O-])cc12` [Derivative 18, 2-(3-Ethoxycarbonyl-6-nitro-4-quinolyl)amino-N,N-dipropylacetamide] returned an IC50 of 26 nM. On the same count and under the same terms, the figure for `CCOC(=O)c1cnc2ccccc2c1NCC(=O)N(CC)CC` [Derivative 10, 2-(3-Ethoxycarbonyl-4-quinolyl)amino-N,N-diethylacetamide] is 1560 nM; for `CCCN(C(=O)CNc1c(C(=O)OCC)cnc2ccc(Cl)cc12)c1ccccc1` [Derivative 35, 2-(3-Ethoxycarbonyl-6-chloro-4-quinolyl)amino-N-propyl-N-phenylacetamide] it is 27 nM; for `CCCN(CCC)C(=O)CNc1c(C(=O)OCC)cnc2ccccc12` [Derivative 15, 2-(3-Ethoxycarbonyl-4-quinolyl)amino-N,N-dipropylacetamide] it is 483 nM. Still for that read-out and setting: under `CCN(CC)C(=O)CNc1c(C(=O)OCc2ccccc2)cnc2ccc(Cl)cc12` [Derivative 50, 2-(3-Benzyloxycarbonyl-6-chloro-4-quinolyl)amino-N,N-diethylacetamide] stands 27 nM. Still for that read-out and setting: under `CCN(CC)C(=O)CNc1c(C(=O)OC(C)C)cnc2ccc(Cl)cc12` [Derivative 48, 2-(3-Isopropyloxycarbonyl-6-chloro-4-quinolyl)amino-N,N-diethylacetamide] stands 69 nM; under `O=C(O)c1cnc2ccc(Cl)cc2c1NCC(=O)N1CCCCCC1` [Derivative 45, 1-{2-[(3-Carboxy-6-chloro-4-quinolyl)amino]acetyl}-homopiperidine], 7 nM; under `CCOC(=O)c1cnc2ccc(Cl)cc2c1NCC(=O)N1CCCCC1` [Derivative 25, 1-{2-[(3-Ethoxycarbonyl-6-chloro-4-quinolyl)amino]acetyl}piperidine], 148 nM. Turning to `CCCN(CCC)C(=O)CNc1c(C(C)=O)cnc2ccc(C)cc12` [Derivative 66, 2-(3-Acetyl-6-methyl-4-quinolyl)amino-N,N-dipropylacetamide], the IC50 was determined as 92 nM. Still for that read-out and setting: under `CCOC(=O)c1cnc2ccc(C)cc2c1NCC(=O)N(CC)CC` [Derivative 2, 2-[(3-Ethoxycarbonyl-6-methyl)-4-quinolyl]amino-N,N-diethylacetamide hydrochloride] stands 41 nM; under `CCCN(CCC)C(=O)CNc1c(C(=O)OCC)cnc2ccc(C(F)(F)F)cc12` [Derivative 19, 2-(3-Ethoxycarbonyl-6-trifluoromethyl-4-quinolyl)amino-N,N-dipropylacetamide], 28 nM; under `CCOC(=O)c1cnc2ccc(Cl)cc2c1NCC(=O)N1CCCCCC1` [Derivative 27, 1-{2-[(3-Ethoxycarbonyl-6-chloro-4-quinolyl)amino]acetyl}homopiperidine], 38 nM. Still for that read-out and setting: under `CCOC(=O)c1cnc2ccc(Cl)cc2c1NCC(=O)N1CCCC1` [Derivative 26, 1-{2-[(3-Ethoxycarbonyl-6-chloro-4-quinolyl)amino]acetyl}pyrrolidine] stands 333 nM; under `CCCN(CCC)C(=O)CNc1c(C(=O)OCC)cnc2ccc(SC)cc12` [Derivative 20, 2-(3-Ethoxycarbonyl-6-methylthio-4-quinolyl)amino-N,N-dipropylacetamide], 40 nM. Compound `CCOC(=O)c1cnc2ccc(F)cc2c1NCC(=O)N(CC)CC` [Derivative 7, 2-(3-Ethoxycarbonyl-6-fluoro-4-quinolyl)amino-N,N-diethylacetamide] displayed an IC50 of 639 nM.

`CCOC(=O)c1cnc2ccc(Cl)cc2c1NCC(=O)N1CCOCC1` [Derivative 28, 1-{2-[(3-Ethoxycarbonyl-6-chloro-4-quinolyl)amino]acetyl}morpholine]: the IC50 worked out at 600 nM. The same measure, in the same setting: under `CCCNC(=O)c1cnc2ccc(Cl)cc2c1NCC(=O)N(CC)CC` [Derivative 55, 2-[3-(N-Propylcarbamoyl)-6-chloro-4-quinolyl]amino-N,N-diethylacetamide] stands 150 nM; under `CCCN(CCC)C(=O)CN(C)c1c(C(=O)OCc2ccccc2)cnc2ccc(C)cc12` [Derivative 53, [N'-(3-Benzyloxycarbonyl-6-methyl-4-quinolyl)-N'-methylamino]-N,N-dipropylacetamide], 638 nM. Compound `CCOC(=O)c1cnc2ccc(Cl)cc2c1NCC(=O)N(C)C1CCCCC1` [Derivative 23, 2-(3-Ethoxycarbonyl-6-chloro-4-quinolyl)amino-N-methyl-N-cyclohexylacetamide] returned an IC50 of 100 nM.

For the compound `CCCN(CCC)C(=O)CNc1c(C(=O)O)cnc2ccc(Br)cc12` [Derivative 47, 2-(3-Carboxy-6-bromo-4-quinolyl)amino-N,N-dipropylacetamide monohydrate], the IC50 came to 1 nM.

Take `CCCCc1ccc2ncc(C(=O)OCC)c(NCC(=O)N(CC)CC)c2c1` [Derivative 6, 2-(3-Ethoxycarbonyl-6-butyl-4-quinolyl)amino-N,N-diethylacetamide]: the IC50 was found to be 155 nM. On to `CCOC(=O)c1cnc2ccc(Cl)cc2c1NCC(=O)N(C(C)C)C(C)C` [Derivative 34, 2-(3-Ethoxycarbonyl-6-chloro-4-quinolyl)amino-N,N-diisopropylacetamide], for which the IC50 turned out to be 48 nM. Still for that read-out and setting: the figure for `CCOC(=O)c1cnc2ccc(C3CCCCC3)cc2c1NCC(=O)N(CC)CC` [Derivative 9, 2-(3-Ethoxycarbonyl-6-cyclohexyl-4-quinolyl)amino-N,N-diethylacetamide] is 900 nM. Still for that read-out and setting: the figure for `CCOC(=O)c1cnc2ccc(Cl)cc2c1NCC(=O)N(C)c1ccc(Cl)cc1` [Derivative 24, 2-(3-Ethoxycarbonyl-6-chloro-4-quinolyl)amino-N-methyl-N-(4-chlorophenyl)acetamide] is 251 nM; for `CCN(CC)C(=O)CNc1c(C(=O)Nc2ccccc2)cnc2ccc(Cl)cc12` [Derivative 56, 2-[3-(N-Phenylcarbamoyl)-6-chloro-4-quinolyl]amino-N,N-diethylacetamide] it is 136 nM. As for `CCOC(=O)c1cnc2ccc(Cl)cc2c1NCC(=O)N(C)C` [Derivative 29, 2-(3-Ethoxycarbonyl-6-chloro-4-quinolyl)amino-N,N-dimethylacetamide], the IC50 amounted to 687 nM. Still for that read-out and setting: under `CCOC(=O)c1cnc2ccc(Cl)cc2c1NCC(=O)N(CC(C)C)CC(C)C` [Derivative 21, 2-(3-Ethoxycarbonyl-6-chloro-4-quinolyl)amino-N,N-diisobutylacetamide] stands 28 nM. `CCOC(=O)c1cnc2ccc(Cl)cc2c1NCC(=O)N(C)c1ccccc1` [Derivative 22, 2-(3-Ethoxycarbonyl-6-chloro-4-quinolyl)amino-N-methyl-N-phenylacetamide]: the IC50 worked out at 14 nM. On to `CCOC(=O)c1cnc2ccc(Cl)cc2c1NCC(=O)NC` [Derivative 41, 2-(3-Ethoxycarbonyl-6-chloro-4-quinolyl)amino-N-methylacetamide], for which the IC50 came to 440 nM. The same measure, in the same setting: the figure for `CCOC(=O)c1cnc2ccc(Cl)cc2c1NCC(N)=O` [Derivative 30, 2-[(3-Ethoxycarbonyl-6-chloro-4-quinolyl)amino]acetamide] is 700 nM; for `CCCN(CCC)C(=O)CN(C)c1c(C(=O)OCc2ccccc2)cnc2ccc(Cl)cc12` [Derivative 52, [N'-(3-Benzyloxycarbonyl-6-chloro-4-quinolyl)-N'-methylamino]-N,N-dipropylacetamide] it is 727 nM.

Another assay concerns pentetrazole seizures. Nature of the assay: Anticonvulsant activity: protection against pentetrazole seizures (EVERETT and RICHARDS). In kind it is in vivo, mice. As to conditions: Mus musculus, po, 0.5 h, pentetrazole 125 mg/kg subcutaneously, no tonic seizures during 30 minutes, 95% confidence limits (FINNEY), read-out: ED50 (Confidence interval). The method, then:
The protective effect produced by the compound of the inventon against pentetrazole seizures was studied.
This test was carried out according to the method of EVERETT and RICHARDS (J. Pharm. Exp. Ther., 1944, 81, 402-407). The test products and reference products were administered orally (suspended in gum arabic) to batches of 10 mice, 30 minutes […] pentetrazole (125 mg/kg subcutaneously).
As a reminder, the ED50 is the midpoint of the dose-response relation. Take `CCCN(CCC)C(=O)CN(C)c1c(C(=O)OCC)cnc2ccc(Br)cc12` [Derivative 63, [N'-(3-Ethoxycarbonyl-6-bromo-4-quinolyl)-N'-methylamino]-N,N-dipropylacetamide]: the ED50 was determined as 24 mg/kg. The same measure, in the same setting: the figure for `CCCCOC(=O)c1cnc2ccc(Cl)cc2c1NCC(=O)N(CC)CC` [Derivative 49, 2-(3-Butoxycarbonyl-6-chloro-4-quinolyl)amino-N,N-diethylacetamide] is 54 mg/kg; for `CCOC(=O)c1cnc2ccccc2c1NCC(=O)N(CC)CC` [Derivative 10, 2-(3-Ethoxycarbonyl-4-quinolyl)amino-N,N-diethylacetamide] it is 68 mg/kg; for `CCCN(CCC)C(=O)CN(C)c1c(C(=O)OCC)cnc2ccc(C)cc12.Cl` [Derivative 61, [N'-(3-Ethoxycarbonyl-6-methyl-4-quinolyl)-N'-methylamino]-N,N-dipropylacetamide hydrochloride] it is 24 mg/kg. Still for that read-out and setting: under `CCC1(c2ccccc2)C(=O)NC(=O)NC1=O` [Phenobarbital, reference compound] stands 10 mg/kg.

`CCOC(=O)c1cnc2ccc(Cl)cc2c1NCC(=O)N1CCCCC1` [Derivative 25, 1-{2-[(3-Ethoxycarbonyl-6-chloro-4-quinolyl)amino]acetyl}piperidine]: the ED50 is 33 mg/kg. Regarding `CCOC(=O)c1cnc2ccc(Cl)cc2c1NCC(=O)N1CCCC1` [Derivative 26, 1-{2-[(3-Ethoxycarbonyl-6-chloro-4-quinolyl)amino]acetyl}pyrrolidine], the ED50 is 50 mg/kg.

Consider `CCOC(=O)c1cnc2ccc(Cl)cc2c1NCC(=O)N(C)C` [Derivative 29, 2-(3-Ethoxycarbonyl-6-chloro-4-quinolyl)amino-N,N-dimethylacetamide], for which the ED50 worked out at 38 mg/kg. The same measure, in the same setting: under `CCOC(=O)c1cnc2ccc(Cl)cc2c1NCC(=O)NC` [Derivative 41, 2-(3-Ethoxycarbonyl-6-chloro-4-quinolyl)amino-N-methylacetamide] stands 46 mg/kg. Consider `CCCN(CCC)C(=O)CN(C)c1c(C(=O)OCc2ccccc2)cnc2ccc(Cl)cc12` [Derivative 52, [N'-(3-Benzyloxycarbonyl-6-chloro-4-quinolyl)-N'-methylamino]-N,N-dipropylacetamide], for which the ED50 was determined as 31 mg/kg.

The same assay, now with this note: oral; pentetrazole 125 mg/kg subcutaneously; no tonic seizures during 30 minutes; 95% confidence limits (FINNEY); 30 min.
For `CCOC(=O)c1cnc2ccc(Cl)cc2c1NCC(=O)N(CC)CC` [1 maleate], the “ED50 (Confidence interval)” value is on record as 27 (18-36) mg/kg.

The values above are taken from US4788188A, “Quinolylglycinamide derivatives, the process for preparation thereof and their therapeutic application as psychotropic drugs” (Sanofi (S.A.), priority 1985, dated 1988).
